Legend:
arrowleaf sida = assay: Test C postemergence arrowleaf sida; assay type: in vivo, Sida rhombifolia; conditions: 0 to 100 scale, 0 no effect, 100 complete control
Procedure, shortened: (§1)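 Foliar postemergence treatment of greenhouse plants grown in 60:40 sandy loam:potting mix; compounds delivered in non-phytotoxic solvent with surfactant. Evaluation is visual, 0–100, after ~14–21 d.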

barnyardgrass = assay: Test C postemergence barnyardgrass; assay type: in vivo, Echinochloa crus-galli; conditions: 0 to 100 scale, 0 no effect, 100 complete control
Description: (§2) Compounds evaluated in this test were formulated in a non-phytotoxic solvent mixture which included a surfactant and applied to plants that were grown for various periods of time before treatment (postemergence application). A mixture of sandy loam soil and greenhouse potting mix in a 60:40 ratio was used for the postemergence test.
(§3) Plantings of these crops and weed species were adjusted to produce plants of appropriate size for the postemergence test. All plant species were grown using normal greenhouse practices. Crop and weed species include arrowleaf sida (Sida rhombifolia), barnyardgrass (Echinochloa crus-galli), cocklebur (Xanthium strumarium), common ragweed (Ambrosia elatior), corn (Zea mays), cotton (Gossypium hirsutum), eastern black nightshade (Solanum ptycanthum), fall panicum (Panicum dichotomiflorum), field bindweed (Convolvulus arvensis), giant foxtail (Setaria faberii), hairy beggarticks (Bidens pilosa), ivyleaf morningglory (Ipomoea hederacea), johnsongrass (Sorghum halepense), ladysthumb smartweed (Polygonum persicaria), lambsquarters (Chenopodium album), large crabgrass (Digitaria sanguinalis), purple nutsedge (Cyperus rotundus), redroot pigweed (Amaranthus retroflexus), soybean (Glycine max), surinam grass (Brachiaria decumbens), velvetleaf (Abutilon theophrasti) and wild poinsettia (Euphorbia heterophylla).
(§4) Treated plants and untreated controls were maintained in a greenhouse for approximately 14, to 21 days, after which all treated plants were compared to untreated controls and visually evaluated. Plant response ratings, summarized in Table C, were based upon a 0 to 100 scale where 0 was no effect and 100 was complete control. A dash response (−) means no test result.

common ragweed = assay: Test C postemergence common ragweed; assay type: in vivo, Ambrosia elatior; conditions: 0 to 100 scale, 0 no effect, 100 complete control
Procedure, shortened: as §1

field bindweed = assay: Test C postemergence field bindweed; assay type: in vivo, Convolvulus arvensis; conditions: 0 to 100 scale, 0 no effect, 100 complete control
Description: as §2, §3, §4

hairy beggarticks = assay: Test C postemergence hairy beggarticks; assay type: in vivo, Bidens pilosa; conditions: 0 to 100 scale, 0 no effect, 100 complete control
Procedure, shortened: as §1

ivyleaf morningglory = assay: Test C postemergence ivyleaf morningglory; assay type: in vivo, Ipomoea hederacea; conditions: 0 to 100 scale, 0 no effect, 100 complete control
Procedure, shortened: as §1

purple nutsedge = assay: Test C postemergence purple nutsedge; assay type: in vivo, Cyperus rotundus; conditions: 0 to 100 scale, 0 no effect, 100 complete control
Description: as §2, §3, §4

soybean = assay: Test C postemergence soybean; assay type: in vivo, Glycine max; conditions: 0 to 100 scale, 0 no effect, 100 complete control
Procedure, shortened: as §1

velvetleaf = assay: Test C postemergence velvetleaf; assay type: in vivo, Abutilon theophrasti; conditions: 0 to 100 scale, 0 no effect, 100 complete control
Description: as §2, §3, §4

Amaranthus rudis (AMATA) = assay: Test F preemergence, alone and in mixture with rimsulfuron, AMATA; assay type: in vivo; conditions: 21 days after treatment, 0-100 scale
Description: Abutilon theophrasti (ABUTH), Chenopodium album (CHEAL), Amaranthus rudis (AMATA), Setaria faberii (SETFA), Panicum dichotomiflorum (PANDI), and Digitaria sanguinalis (DIGSA) were grown from seed in pots of an artificial potting mixture in a greenhouse. Compounds of the present invention were applied at 70 and 105 g ai/ha preemergence. Rimsulfuron was applied at 8.8 and 17.5 g ai/ha. Mixtures of the compounds of the present invention and rimsulfuron were also applied.
Following application, the plants were maintained by watering as needed. A fertilizer solution of Peter's 20-20-20 (10 pounds/5 gallons of water) plus Sprint 330, a Iron Chelate micronutrient, (113.5 grams/5 gallons of water) was injected into the water with an Anderson fertilizer injection system to provide approximately 219 ppm of nitrogen with each watering. Artificial lighting was used to supplement natural light to produce a 14 hour photoperiod and: an additional one hour light period was used between 1:00 am to 2:00 am for a night interruption. Greenhouse temperatures were targeted for 27° C. in the day and 21° C. at night. At 21 days after treatment, all plants were evaluated for injury as compared to control plants that were sprayed only with non-phytotoxic solvent.
Colby's equation was used to calculate the expected additive herbicidal effect of the mixtures of Compound 21 and the mixture partners listed above. […]

Green foxtail = assay: Test D green foxtail; assay type: in vivo
Source text: Seeds, tubers, or plant parts of Alexandergrass (Brachiaria plantaginea), bermuda-grass (Cynodon dactylon), common pursiane (Portulaca oleracea), common ragweed (Ambrosia elatior), common groundsel (Senecio vulgaris), dallisgrass (Paspalum dilatatum), goosegrass (Eleusine indica), guineagrass (Panicum maximum), itchgrass (Rottboellia exaltata), Johnson grass (Sorghum halepense), large crabgrass (Digitaria sanguinalis), pitted morningglory (Ipomoea lacunosa), purple nutsedge (Cyperus rotundus), sandbur (Cenchrus echinatus), sourgrass (Trichachne insularis), Spanishneedles (Bidens bipinnata), surinam grass (Brachiaria decumbens) and tall mallow (Malva sylvestris) were planted into greenhouse pots of flats containing greenhouse planting medium. Plant species were grown in separate pots or individual compartments. Preemergence applications were made within one day of planting the seed or plant part.
Test chemicals were formulated in a non-phytotoxic solvent mixture which included a surfactant and applied preemergence to the surface of the pot containing seeds in a sandy loam soil. Untreated control pots and treated pots were placed in the greenhouse for growth and visually evaluated for injury 14 to 21 days after herbicide application. Plant response ratings, summarized in Table C, are based on a 0 to 100 scale where 0 is no injury and 100 is complete control. A dash (−) response means no test result.

[1] = Rate 64 g/ha, Preemergence; 0 to 100 scale, 0 no injury, 100 complete control
[2] = Rate 125 g/ha, Preemergence; 0 to 100 scale, 0 no injury, 100 complete control

CC(C)N(C(=O)n1oc(=O)n(C(C)C)c1=O)c1ccccc1 [Compound 113]
Plant response rating Arrowleaf sida (arrowleaf sida; Rate 140 g/ha): 30 | Plant response rating Arrowleaf sida (arrowleaf sida; Rate 280 g/ha): 40 | Plant response rating Arrowleaf sida (arrowleaf sida; Rate 560 g/ha): 70 | Plant response rating Arrowleaf sida (arrowleaf sida; Rate 1120 g/ha): 95 | Plant response rating, Barnyardgrass (barnyardgrass; Rate 140 g/ha): 80 | Plant response rating, Barnyardgrass (barnyardgrass; Rate 280 g/ha): 80 | Plant response rating, Barnyardgrass (barnyardgrass; Rate 560 g/ha): 85 | Plant response rating, Barnyardgrass (barnyardgrass; Rate 1120 g/ha): 95 | Plant response rating Common ragweed (common ragweed; Rate 140 g/ha): 5 | Plant response rating Common ragweed (common ragweed; Rate 280 g/ha): 5 | Plant response rating Common ragweed (common ragweed; Rate 1120 g/ha): 20 | Plant response rating Field bindweed (field bindweed; Rate 140 g/ha): 0 | Plant response rating Field bindweed (field bindweed; Rate 280 g/ha): 0 | Plant response rating Field bindweed (field bindweed; Rate 560 g/ha): 50 | Plant response rating Field bindweed (field bindweed; Rate 1120 g/ha): 50 | Plant response rating H. beggarticks (hairy beggarticks; Rate 140 g/ha): 5 | Plant response rating H. beggarticks (hairy beggarticks; Rate 280 g/ha): 30 | Plant response rating H. beggarticks (hairy beggarticks; Rate 560 g/ha): 30 | Plant response rating H. beggarticks (hairy beggarticks; Rate 1120 g/ha): 50 | Plant response rating I. morningglory (ivyleaf morningglory; Rate 140 g/ha): 10 | Plant response rating I. morningglory (ivyleaf morningglory; Rate 280 g/ha): 50 | Plant response rating I. morningglory (ivyleaf morningglory; Rate 560 g/ha): 50 | Plant response rating I. morningglory (ivyleaf morningglory; Rate 1120 g/ha): 50 | Plant response rating, Purple nutsedge (purple nutsedge; Rate 140 g/ha): 0 | Plant response rating, Purple nutsedge (purple nutsedge; Rate 280 g/ha): 10 | Plant response rating, Purple nutsedge (purple nutsedge; Rate 560 g/ha): 0 | Plant response rating, Purple nutsedge (purple nutsedge; Rate 1120 g/ha): 10 | Plant response rating, Soybean (soybean; Rate 140 g/ha): 40 | Plant response rating, Soybean (soybean; Rate 280 g/ha): 70 | Plant response rating, Soybean (soybean; Rate 560 g/ha): 85 | Plant response rating, Soybean (soybean; Rate 1120 g/ha): 85 | Plant response rating, Velvetleaf (velvetleaf; Rate 140 g/ha): 0 | Plant response rating, Velvetleaf (velvetleaf; Rate 280 g/ha): 0 | Plant response rating, Velvetleaf (velvetleaf; Rate 560 g/ha): 60 | Plant response rating, Velvetleaf (velvetleaf; Rate 1120 g/ha): 75 | AMATA Observed (Amaranthus rudis (AMATA); Alone: Cmpd. rate 70, Rimsulfuron 0): 35% | AMATA Observed (Amaranthus rudis (AMATA); Alone: Cmpd. rate 105, Rimsulfuron 0): 25% | Plant response rating, Green foxtail (Green foxtail; Preemergence; Rate 16 g/ha; 0 to 100 scale, 0 no injury, 100 complete control): 80 | Plant response rating, Green foxtail (Green foxtail; Preemergence; Rate 32 g/ha; 0 to 100 scale, 0 no injury, 100 complete control): 98 | Plant response rating, Green foxtail (Green foxtail; Rate 16 g/ha; Preemergence; 0 to 100 scale, 0 no injury, 100 complete control): 80 | Plant response rating, Green foxtail (Green foxtail; Rate 32 g/ha; Preemergence; 0 to 100 scale, 0 no injury, 100 complete control): 70 | Green foxtail plant response rating (Green foxtail; [1]): 100 | Plant response rating, Green foxtail (Green foxtail; [1]): 100 | Green foxtail plant response rating (Green foxtail; [2]): 100 | Plant response rating, Green foxtail (Green foxtail; [2]): 100

From patent US6737383B1, “Herbicidal oxadiazolidines” (priority 1999, dated 2004)
